Results: article PMC7822874, “Chemoprotective antimalarials identified through quantitative high-throughput screening of Plasmodium blood and liver stage parasites” (Scientific Reports, 2021)
Where two headings read alike, the source gives them in different places.

What was measured:
[1] = system: P. falciparum Dd2 (clone B2) asexual blood stage parasites; assay: P. falciparum Dd2 asexual blood stage SYBR Green-I 72 h proliferation assay (qHTS); assay type: cell-based, Plasmodium falciparum; details: averaged P. falciparum asexual blood stage potency, log10 of AC50 in M
[2] = system: P. berghei-ANKA-GFP-LucCON liver stage parasites in HepG2-A16-CD81EGFP cells; assay: P. berghei liver stage Pb-Luc assay, Method 1 (UCSD, 1536-well); assay type: cell-based, Plasmodium berghei; details: P. berghei liver stage, averaged response (percent); for Average P. berghei 1 µM response (%): the header list (r8) defines it as the 1 µM dose
HepG2-A16-CD81EGFP cells = details: averaged response (percent)
[3] = HepG2, the header list (r10) describes it as the 1 µM dose

| SMILES | Pf ABS Log AC50 (M) [1] | Average P. berghei 3 µM response( %) [2] | Average P. berghei 1 µM response (%) [2] | Average HepG2 3 µM response( %) (HepG2-A16-CD81EGFP cells; HepG2, 3 µM dose) | Average HepG2 3 µM response( %) (HepG2-A16-CD81EGFP cells; [3]) |
| --- | --- | --- | --- | --- | --- |
| COc1cccc(OC)c1C(=O)NC(S)=Nc1ccc2c(c1)C(=O)N(C)C2=O [MLS000331897] | -6.025 M | 113% | 122% | 104% | 104% |
| Oc1ccc(-c2nnc(S)n2-c2ccc3c(c2)OCCO3)c(O)c1 [MLS000332001] | -6.012 M | 70% | 78% | 95% | 101% |
| OC(CN1CCN(c2ccccn2)CC1)Cn1c2ccc(Cl)cc2c2cc(Cl)ccc21 (stereo not drawn) [MLS000529159] | -5.612 M | 77% | 108% | 102% | 102% |
| CCOC(=O)c1c[nH]c2c(C)cc(C)cc2c1=O [MLS000530578] | -5.437 M | 9.48% | 49% | 102% | 102% |
| COc1ccc(C2=C(Nc3ccc(C)cc3)c3ccccc3C2=O)cc1 [MLS000563980] | -5.637 M | 25% | 81% | 89% | 94% |
| Br.CCOC(=O)c1c(CSC(=N)N)n(-c2ccc(Br)cc2)c2cc(Br)c(OC(C)=O)cc12 [MLS000595146] | -5.712 M | 73% | 88% | 102% | 101% |
| O=C(/C=C/c1ccco1)NC(=S)Nc1ccccc1N1CCCC1 [MLS000663784] | -5.575 M | 104% | 113% | 105% | 105% |
| c1cc(Nc2ncnc3sc4c(c23)CCC4)ccn1 [MLS000681348] | -5.462 M | 95% | 92% | 103% | 103% |
| Cc1cc(Cl)c(S(=O)(=O)N2CCN(c3ccccn3)CC2)cc1OCC(=O)NC1CCCCC1 [MLS000693481] | -6.387 M | 74% | 99% | 100% | 93% |
| CCOC(=O)Cn1c2c(c(=N)c3c1CCC3)CCCC2 [MLS000702567] | -4.912 M | 104% | 95% | 104% | 104% |
| Cc1nn(-c2nnc(NCc3ccccc3)nn2)c(C)c1Br [MLS000704225] | -6.187 M | 57% | 106% | 93% | 102% |
| CCOc1ccc(Nc2nc(NCC3CCCO3)c3ccccc3n2)cc1 (stereo not drawn) [MLS000724397] | -5.737 M | 10% | 59% | 84% | 102% |
| OC(CNCCNc1ncccc1C(F)(F)F)Cn1ccc2ccccc21 (stereo not drawn) [MLS000833573] | -5.662 M | 109% | 113% | 95% | 101% |
| CCOC(=O)N1CCc2c(sc3nc4n(c(=O)c23)N=C(c2ccc(OC)cc2)CS4)C1 [MLS000859689] | -5.012 M | 87% | 113% | 98% | 100% |
| Oc1ccc(C2NCc3ccccc3-n3cccc32)cc1Cl (stereo not drawn) [MLS000878874] | -5.925 M | 82% | 96% | 105% | 105% |
| COc1cc(O)c(C(CCN2CCCC(C)C2)c2cc(OC)c(OC)c(OC)c2)c(OC)c1 (stereo not drawn) [MLS000879467] | -5.687 M | 71% |  | 86% | 89% |
| COc1ccc(C(CCN2CCCCC2)c2c(O)cc(OC)cc2OC)cc1 (stereo not drawn) [MLS000879486] | -5.962 M | 88% | 105% | 88% | 92% |

| SMILES | Pf ABS Log AC50 (M) [1] | Average P. berghei 3 µM response( %) [2] | Average P. berghei 1 µM response (%) [2] | Average HepG2 3 µM response( %) (HepG2-A16-CD81EGFP cells; HepG2, 3 µM dose) | Average HepG2 3 µM response( %) (HepG2-A16-CD81EGFP cells; [3]) |
| --- | --- | --- | --- | --- | --- |
| CN(CC(=O)Nc1cccc(F)c1)C(=O)c1ccc(-c2cccc(C(F)(F)F)c2)o1 [MLS001139679] | -6.362 M | 89% | 141% | 100% | 103% |
| c1ccc(CNc2nc(-c3ccccn3)nc3ccccc23)cc1 [MLS001165148] | -5.662 M | 8% | 72% | 87% | 96% |
| CCOC(=O)C1=C(C)N=c2s/c(=C/c3ccc(OCC(=O)O)cc3)c(=O)n2C1c1cc(OC)c(OC)c(OC)c1 (stereo not drawn) [MLS001178475] | -5.737 M | 74% | 98% | 99% | 99% |
| Cc1ccc2[nH]c(C(=O)Nc3ccc(F)cc3)cc2c1 [MLS001183414] | -4.837 M | 91% | 92% | 100% | 100% |
| N=c1n(N)c2ccccc2n1CC(=O)c1ccc(Br)cc1 [MLS001183984] | -5.837 M | 137% | 110% | 102% | 102% |
| c1ccc2c(NCCc3c[nH]c4ccccc34)c3ccccc3nc2c1 [MLS001195935] | -5.937 M | 47% |  | 82% | 91% |
| CN(C)c1cc[n+](CC(=O)c2cccs2)cc1 [MLS001207444] | -5.387 M | 62% | 89% | 101% | 101% |
| CN1CCC(NCCC(c2ccc(F)cc2)c2ccc(Cl)cc2)CC1 (stereo not drawn) [MLS001215866] | -5.437 M | 70% | 103% | 100% | 100% |
| C=C(C)COc1ccc(-c2ncnc(C(F)(F)F)c2-c2ccc(OC)cc2)c(O)c1 [MLS001216205] | -5.462 M | 105% | 107% | 103% | 92% |
| O=C1c2cc(F)ccc2-n2c1nc1ccccc1c2=O [MLS001216278] | -5.937 M | 13% | 25% | 94% | 94% |
| Cc1ccc(/C=N/NC(=O)c2cc3ccccc3cc2O)o1 [MLS001219838] | -5.275 M | 6.47% | 18% | 98% | 98% |
| O=C(c1ccc([N+](=O)[O-])o1)N1CCN(c2nc3c(F)cc(F)cc3s2)CC1 [MLS001234228] | -5.462 M | 65% | 77% | 107% | 103% |
| COC(=O)[C@H]1[C@H]2C[C@@H]3c4[nH]c5cc(OC)ccc5c4CCN3C[C@H]2C[C@@H](OC(=O)/C=C/c2cc(OC)c(OC)c(OC)c2)[C@@H]1OC [MLS002153878] | -5.162 M | 84% | 102% | 105% | 105% |
| O=S1(=O)N(CCN2CC=C(c3c[nH]c4cc(F)ccc34)CC2)c2cccc3c2N1CCC3 [MLS002172448] | -6.050 M | 60% | 78% | 80% | 88% |
| CCN1CCN(Cc2ccc(NC(=O)c3cc(NC(=O)C(=O)c4c[nH]c5ccccc45)cc(OC)c3)cc2C(F)(F)F)CC1.O=C(O)C(F)(F)F [MLS003105970] | -6.175 M | 54% | 132% | 106% | 106% |
| COc1ccc(CCN2CCC(Nc3nc4ccccc4n3Cc3ccc(F)cc3)CC2)cc1 [NCGC00016913] | -5.658 M | 43% | 54% | 100% | 99% |
| COc1ccc(-c2c3c(nc4sc(C(=O)Nc5ccc(Cl)cc5)c(N)c24)CC(C)(C)CC3=O)cc1 [NCGC00100738] | -6.425 M | 90% | 111% | 109% | 104% |
